Test results taken from ChEMBL document CHEMBL1136776, “Aromatic reduced amide bond peptidomimetics as selective inhibitors of neuronal nitric oxide synthase” (J Med Chem, 2003).
Square brackets hold non-standard residues; d marks the D form. Peptide text beside a SMILES is read from it. dArg(NO2) = N=C(NCCC[C@@H](N)C(=O)O)N[N+](=O)[O-]

What was measured:
Nitric oxide synthase 1 = Nitric oxide synthase 1 (Rattus norvegicus, UniProt P29476)
Description: Inhibitory activity against Neuronal Nitric Oxide Synthase (nNOS)

[1] = Selectivity ratio of Ki value of eNOS to nNOS
[2] = Selectivity ratio of Ki value of iNOS to nNOS
Nitric oxide synthase 3 = target: T1, Nitric oxide synthase 3 (Bos taurus, UniProt P29473)
T1 sequence (P29473 whole entry): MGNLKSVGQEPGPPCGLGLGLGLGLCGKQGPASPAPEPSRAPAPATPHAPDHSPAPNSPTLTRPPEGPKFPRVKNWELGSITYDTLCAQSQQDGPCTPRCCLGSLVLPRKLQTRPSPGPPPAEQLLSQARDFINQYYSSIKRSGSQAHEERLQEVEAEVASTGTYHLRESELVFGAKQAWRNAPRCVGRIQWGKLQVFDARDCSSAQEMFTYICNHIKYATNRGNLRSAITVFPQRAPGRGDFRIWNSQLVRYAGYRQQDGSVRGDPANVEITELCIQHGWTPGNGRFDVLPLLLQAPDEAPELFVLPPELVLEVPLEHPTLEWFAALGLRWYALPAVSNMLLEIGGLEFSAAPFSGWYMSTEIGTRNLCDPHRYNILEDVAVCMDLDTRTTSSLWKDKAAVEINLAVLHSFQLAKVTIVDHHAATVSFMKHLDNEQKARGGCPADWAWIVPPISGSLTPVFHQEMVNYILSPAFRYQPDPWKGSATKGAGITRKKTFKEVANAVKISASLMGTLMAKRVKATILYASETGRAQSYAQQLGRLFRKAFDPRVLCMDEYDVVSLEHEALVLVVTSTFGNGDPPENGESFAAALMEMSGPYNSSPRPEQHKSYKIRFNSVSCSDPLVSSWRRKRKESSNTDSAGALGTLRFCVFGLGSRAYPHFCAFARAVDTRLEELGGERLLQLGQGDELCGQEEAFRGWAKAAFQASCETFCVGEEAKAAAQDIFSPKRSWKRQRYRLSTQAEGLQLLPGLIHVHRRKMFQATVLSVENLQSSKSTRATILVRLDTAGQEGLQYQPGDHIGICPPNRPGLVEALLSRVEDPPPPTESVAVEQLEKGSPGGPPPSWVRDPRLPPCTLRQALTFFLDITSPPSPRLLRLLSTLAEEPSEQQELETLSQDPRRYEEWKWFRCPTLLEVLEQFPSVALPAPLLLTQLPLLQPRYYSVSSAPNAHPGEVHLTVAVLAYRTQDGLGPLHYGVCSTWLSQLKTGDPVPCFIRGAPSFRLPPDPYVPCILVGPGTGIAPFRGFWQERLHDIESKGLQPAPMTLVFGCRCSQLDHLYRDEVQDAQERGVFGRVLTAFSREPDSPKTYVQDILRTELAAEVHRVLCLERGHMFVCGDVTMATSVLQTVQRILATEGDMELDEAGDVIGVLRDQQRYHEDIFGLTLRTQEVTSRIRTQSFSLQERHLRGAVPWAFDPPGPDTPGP
Description: Inhibitory activity against endothelial nitric oxide synthase (eNOS)

Sequence of Nitric oxide synthase 1 (P29476 whole entry): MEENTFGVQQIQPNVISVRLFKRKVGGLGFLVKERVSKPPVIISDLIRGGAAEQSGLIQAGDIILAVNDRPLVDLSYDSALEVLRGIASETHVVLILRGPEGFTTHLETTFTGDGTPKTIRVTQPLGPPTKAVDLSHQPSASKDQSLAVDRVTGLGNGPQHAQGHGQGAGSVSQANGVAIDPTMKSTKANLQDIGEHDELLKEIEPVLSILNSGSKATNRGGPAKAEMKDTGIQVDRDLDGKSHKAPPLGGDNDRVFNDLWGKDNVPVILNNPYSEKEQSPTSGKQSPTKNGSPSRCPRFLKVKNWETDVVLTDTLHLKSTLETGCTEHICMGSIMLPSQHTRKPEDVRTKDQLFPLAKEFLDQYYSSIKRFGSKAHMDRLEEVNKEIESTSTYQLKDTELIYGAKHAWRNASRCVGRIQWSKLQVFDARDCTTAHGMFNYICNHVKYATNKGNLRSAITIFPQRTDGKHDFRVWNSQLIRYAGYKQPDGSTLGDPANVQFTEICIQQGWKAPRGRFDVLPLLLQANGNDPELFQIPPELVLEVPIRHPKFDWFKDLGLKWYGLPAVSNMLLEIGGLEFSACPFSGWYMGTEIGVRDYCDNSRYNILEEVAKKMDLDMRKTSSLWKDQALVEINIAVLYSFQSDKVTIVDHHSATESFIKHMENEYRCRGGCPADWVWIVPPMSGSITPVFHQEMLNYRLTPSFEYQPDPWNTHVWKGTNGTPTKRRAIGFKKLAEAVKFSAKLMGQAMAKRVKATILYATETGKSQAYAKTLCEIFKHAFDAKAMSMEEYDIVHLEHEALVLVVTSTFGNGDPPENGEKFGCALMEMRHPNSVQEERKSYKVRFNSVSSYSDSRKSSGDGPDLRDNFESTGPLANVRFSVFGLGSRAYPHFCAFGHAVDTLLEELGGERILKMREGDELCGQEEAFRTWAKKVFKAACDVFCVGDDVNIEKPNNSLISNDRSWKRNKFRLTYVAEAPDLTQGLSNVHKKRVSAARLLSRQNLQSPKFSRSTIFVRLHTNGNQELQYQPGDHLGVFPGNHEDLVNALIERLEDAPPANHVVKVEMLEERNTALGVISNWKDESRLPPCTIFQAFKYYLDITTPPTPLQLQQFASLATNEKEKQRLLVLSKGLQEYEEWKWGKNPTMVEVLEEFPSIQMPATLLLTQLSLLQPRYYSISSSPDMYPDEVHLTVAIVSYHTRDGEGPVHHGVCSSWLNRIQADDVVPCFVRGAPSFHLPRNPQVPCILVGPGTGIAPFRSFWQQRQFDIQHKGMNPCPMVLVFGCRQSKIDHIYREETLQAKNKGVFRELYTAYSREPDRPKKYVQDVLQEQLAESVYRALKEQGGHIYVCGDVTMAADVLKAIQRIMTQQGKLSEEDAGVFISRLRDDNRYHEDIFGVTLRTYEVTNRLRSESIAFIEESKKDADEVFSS

| Compound | Ki (Nitric oxide synthase 1) | Selectivity [1] | Selectivity [2] | Ki (Nitric oxide synthase 3) |
| --- | --- | --- | --- | --- |
| COC(=O)[C@@H](CCCNC(=N)N[N+](=O)[O-])NC(=O)[C@H](N)Cc1ccccc1 (H-[dF]-[dArg(NO2)]-OMe) | 2 µM | 2.5 | 1800 |  |
| N=C(NCCC[C@H](N)CNCCc1ccccn1)N[N+](=O)[O-] |  |  |  | 123 µM |
| NCCCC[C@@H](N)C(=O)N[C@H](CCC/N=C(/N)N[N+](=O)[O-])C(N)=O (H-[dK]-[dArg(NO2)]-NH2) | 0.89 µM |  |  |  |
| N/C(=N\CCC[C@H](N)CNc1cccc(N)c1)N[N+](=O)[O-] |  | 36 | 127 |  |
| N/C(=N\CCC[C@H](N)CNCCc1cccc(N)c1)N[N+](=O)[O-] |  | 35 | 122 |  |
| N/C(=N\CCC[C@H](N)CNCc1cccnc1)N[N+](=O)[O-] |  | 951 | 256 |  |
| N=C(NCCC[C@H](N)CNCCc1ccncc1)N[N+](=O)[O-] |  |  |  | 193 µM |
| NCc1ccc(NC[C@@H](N)CCC/N=C(\N)N[N+](=O)[O-])cc1 |  | 299 | 245 |  |
| N/C(=N\CCC[C@H](N)CNCCc1ccc(N)cc1)N[N+](=O)[O-] |  | 230 | 458 |  |
| N/C(=N\CCC[C@H](N)CNc1ccc(N)cc1)N[N+](=O)[O-] |  | 51 | 149 |  |
| NCc1ccccc1NC[C@@H](N)CCC/N=C(\N)N[N+](=O)[O-] |  | 7.17 | 5.28 |  |
| N/C(=N\CCC[C@H](N)CNCCc1ccccc1N)N[N+](=O)[O-] |  | 22.1 | 135 |  |
